The record followed here is ChEMBL document CHEMBL1142788, “Synthesis and antibacterial activity of alkyl derivatives of the glycopeptide antibiotic A40926 and their amides” (2005).

The test system of assay [1] is Staphylococcus epidermidis. The experiment in a line: Minimum inhibitory concentration against methicillin-sensitive Staphylococcus epidermidis in the presence of 30% bovine serum. It counts as functional.
The subject of assay [2] is Staphylococcus aureus. Kind of assay: Minimum inhibitory concentration against methicillin-sensitive Staphylococcus aureus.
For assay [3], the system named is Staphylococcus haemolyticus. Kind of assay: Minimum inhibitory concentration against Staphylococcus haemolyticus in the presence of 30% bovine serum. Type of assay: functional.
For assay [4], the system named is Enterococcus faecalis. Kind of assay: Minimum inhibitory concentration against vancomycin-A Enterococcus faecalis in the presence of 30% bovine serum (n=4) (range = 1-16mg/L). Type of assay: functional.
Assay [5] concerns Enterococcus faecium. The experiment in a line: Minimum inhibitory concentration against vancomycin-sensitive Enterococcus faecium in the presence of 30% bovine serum(n=1). Type of assay: functional.
For assay [6], the system named is Staphylococcus epidermidis. The experiment in a line: Minimum inhibitory concentration against methicillin-resistant Staphylococcus epidermidis in the presence of 30% bovine serum. It counts as functional.
Assay [7] deals with Enterococcus faecium. Kind of assay: Minimum inhibitory concentration against vancomycin-A Enterococcus faecium in the presence of 30% bovine serum (n=1) (range = 4>128mg/L). Type of assay: functional.
In assay [8] the test system is Enterococcus faecalis. Kind of assay: Minimum inhibitory concentration against vancomycin-sensitive Enterococcus faecalis in the presence of 30% bovine serum (n=3) (range = 0.25-0.5mg/l). It counts as functional.
The subject of assay [9] is Staphylococcus aureus. Kind of assay: Minimum inhibitory concentration against methicillin-resistant Staphylococcus aureus.
Assay [10] relates to Enterococcus faecalis. Kind of assay: Minimum inhibitory concentration against vancomycin-A Enterococcus faecalis in the presence of 30% bovine serum (n=4). Type of assay: functional.
Assay [11] deals with Enterococcus faecalis. Kind of assay: Minimum inhibitory concentration against vancomycin-sensitive Enterococcus faecalis in the presence of 30% bovine serum(n=3) (range = 0.25-1mg/l). It counts as functional.
Assay [12] deals with Staphylococcus aureus. The experiment in a line: Minimum inhibitory concentration against methicillin-sensitive Staphylococcus aureus without serum.
In assay [13] the test system is Enterococcus faecium. Kind of assay: Minimum inhibitory concentration against vancomycin-A Enterococcus faecium in the presence of 30% bovine serum (n=1) (range = 2>128mg/l). It counts as functional.
Assay [14] concerns Enterococcus faecium. Kind of assay: Minimum inhibitory concentration against vancomycin-A Enterococcus faecium in the presence of 30% bovine serum (n=1) (range = 32>128mg/L). It counts as functional.
Assay [15] deals with Enterococcus faecalis. Kind of assay: Minimum inhibitory concentration against vancomycin-sensitive Enterococcus faecalis in the presence of 30% bovine serum(n=3)(range = 0.125-0.25mg/l). It counts as functional.
Assay [16] concerns Enterococcus faecalis. Kind of assay: Minimum inhibitory concentration against vancomycin-A Enterococcus faecalis in the presence of 30% bovine serum (n=4) (range = 8-64mg/L). Type of assay: functional.
Assay [17] relates to Enterococcus faecium. The experiment in a line: Minimum inhibitory concentration against vancomycin-A Enterococcus faecium in the presence of 30% bovine serum (n=1) (range = 4-8mg/L). It counts as functional.
Assay [18] concerns Enterococcus faecalis. The experiment in a line: Minimum inhibitory concentration against vancomycin-sensitive Enterococcus faecalis in the presence of 30% bovine serum (n=3). Type of assay: functional.
The subject of assay [19] is Enterococcus faecalis. The experiment in a line: Minimum inhibitory concentration against vancomycin-A Enterococcus faecalis in the presence of 30% bovine serum(n=4) (range = 1-16mg/L). Type of assay: functional.
Assay [20] relates to Enterococcus faecium. Kind of assay: Minimum inhibitory concentration against vancomycin-A Enterococcus faecium in the presence of 30% bovine serum (n=1) (range = 2-32mg/l). It counts as functional.
The subject of assay [21] is Enterococcus faecalis. Kind of assay: Minimum inhibitory concentration against vancomycin-A Enterococcus faecalis in the presence of 30% bovine serum(n=4) (range = 0.5-64mg/L). Type of assay: functional.
Assay [22] has as its system Enterococcus faecium. The experiment in a line: Minimum inhibitory concentration against vancomycin-A Enterococcus faecium in the presence of 30% bovine serum (n=1) (range = 0.25-32mg/l). Type of assay: functional.
Assay [23] relates to Enterococcus faecalis. Kind of assay: Minimum inhibitory concentration against vancomycin-sensitive Enterococcus faecalis in the presence of 30% bovine serum (n=3) (range = <0.125-0.25mg/l). It counts as functional.
Assay [24] concerns Enterococcus faecalis. Kind of assay: Minimum inhibitory concentration against vancomycin-A Enterococcus faecalis (n=4) (Range = 1 - 8 mg/L).
The subject of assay [25] is Enterococcus faecalis. Kind of assay: Minimum inhibitory concentration against vancomycin-sensitive Enterococcus faecalis in the presence of 30% bovine serum(n=3)(range = 0.125-0.5mg/l). Type of assay: functional.
For assay [26], the system named is Enterococcus faecium. The experiment in a line: Minimum inhibitory concentration against vancomycin-sensitive Enterococcus faecium in the presence of 30% bovine serum(n=1) (range = 1-8 mg/l). Type of assay: functional.
For assay [27], the system named is Enterococcus faecium. Kind of assay: Minimum inhibitory concentration against vancomycin-A Enterococcus faecium in the presence of 30% bovine serum (n=1) (range = 2>128). Type of assay: functional.

The structures appear in SMILES notation. In brackets after ≈: the same amount, converted by molar mass.

As a reminder, the MIC is the least concentration at which growth counts as inhibited. As to `CN(Cc1ccc(-c2ccccc2)cc1)[C@H]1C(=O)N[C@@H]2Cc3ccc(cc3)Oc3cc4cc(c3O[C@@H]3OC(C(=O)O)C(O)[C@H](O)C3NCc3ccc(-c5ccccc5)cc3)Oc3ccc(cc3Cl)[C@@H](O)C3NC(=O)[C@H](NC(=O)[C@@H]4NC(=O)[C@@H](NC2=O)c2cc(cc(O)c2Cl)Oc2cc1ccc2O)c1ccc(O)c(c1)-c1c(O[C@H]2O[C@H](CO)[C@@H](O)[C@H](O)[C@@H]2O)cc(O)cc1[C@@H](C(=O)O)NC3=O` (stereo not given in full), the minimal inhibitory concentration (MIC) came to 0.5 µg/mL in assay [1]; 0.5 µg/mL (≈ 0.266 µM) with Staphylococcus aureus [2]; 64 µg/mL in assay [3]; 16 µg/mL in the assay with Enterococcus faecalis [4]; 0.5 µg/mL in the assay with Enterococcus faecium [5]; 4 µg/mL in assay [6]. Also, the MIC was greater than 128 µg/mL in the assay on Enterococcus faecium [7], 0.5 µg/mL in the assay on Enterococcus faecalis [8] and 0.5 µg/mL (≈ 0.266 µM) with Staphylococcus aureus [9].
As for `CN(Cc1ccc(C(=O)Oc2ccccc2)cc1)[C@H]1C(=O)N[C@@H]2Cc3ccc(cc3)Oc3cc4cc(c3O[C@@H]3OC(C(=O)O)C(O)[C@H](O)C3NCc3ccc(C(=O)Oc5ccccc5)cc3)Oc3ccc(cc3Cl)[C@@H](O)C3NC(=O)[C@H](NC(=O)[C@@H]4NC(=O)[C@@H](NC2=O)c2cc(cc(O)c2Cl)Oc2cc1ccc2O)c1ccc(O)c(c1)-c1c(O[C@H]2O[C@H](CO)[C@@H](O)[C@H](O)[C@@H]2O)cc(O)cc1[C@@H](C(=O)O)NC3=O` (stereo not given in full), the MIC was 4 µg/mL in [1]; 4 µg/mL in the assay with Enterococcus faecalis [10]; 1 µg/mL in the assay on Enterococcus faecalis [11]; 2 µg/mL (≈ 1.01 µM) in the assay on Staphylococcus aureus [12]; 64 µg/mL in [3]; 1 µg/mL in the assay with Enterococcus faecium [5]. The MIC in the assay on Enterococcus faecium [13] was greater than 128 µg/mL; in assay [6], 16 µg/mL; against Staphylococcus aureus [9], 2 µg/mL (≈ 1.01 µM).
`CCCCCCCCOc1ccc(CNC2[C@H](Oc3c4cc5cc3Oc3ccc(cc3Cl)[C@@H](O)C3NC(=O)[C@H](NC(=O)[C@@H]5NC(=O)[C@H]5NC(=O)[C@@H](Cc6ccc(cc6)O4)NC(=O)[C@H](NC)c4ccc(O)c(c4)Oc4cc(O)c(Cl)c5c4)c4ccc(O)c(c4)-c4c(O[C@H]5O[C@H](CO)[C@@H](O)[C@H](O)[C@@H]5O)cc(O)cc4[C@@H](C(=O)O)NC3=O)OC(C(=O)O)C(O)[C@@H]2O)cc1` (stereo not given in full): the MIC was 16 µg/mL in [1]; 2 µg/mL (≈ 1.13 µM) with Staphylococcus aureus [2]; greater than 128 µg/mL in the assay on Enterococcus faecium [14]; 0.125 µg/mL in the assay on Enterococcus faecalis [15]; 16 µg/mL in assay [3]; 0.5 µg/mL with Enterococcus faecium [5]. Moreover, the minimal inhibitory concentration (MIC) is 64 µg/mL with Enterococcus faecalis [16] and 1 µg/mL (≈ 0.565 µM) in the assay on Staphylococcus aureus [9].
`CCCCCCCCCCc1ccc(CNC2[C@H](Oc3c4cc5cc3Oc3ccc(cc3Cl)[C@@H](O)C3NC(=O)[C@H](NC(=O)[C@@H]5NC(=O)[C@H]5NC(=O)[C@@H](Cc6ccc(cc6)O4)NC(=O)[C@H](NC)c4ccc(O)c(c4)Oc4cc(O)c(Cl)c5c4)c4ccc(O)c(c4)-c4c(O[C@H]5O[C@H](CO)[C@@H](O)[C@H](O)[C@@H]5O)cc(O)cc4[C@@H](C(=O)NCCCN(C)C)NC3=O)OC(C(=O)NCCCN(C)C)C(O)[C@@H]2O)cc1` (stereo not given in full): the MIC worked out at 8 µg/mL in the assay with Enterococcus faecium [17]; 1 µg/mL in assay [1]; 4 µg/mL in the assay on Enterococcus faecalis [10]; 0.25 µg/mL in the assay on Enterococcus faecalis [18]; 2 µg/mL in assay [3]; 0.25 µg/mL with Enterococcus faecium [5]. The same compound yielded an MIC against Staphylococcus aureus [9] of 2 µg/mL (≈ 1.03 µM).
As for `CN(C)CCCNC(=O)C1O[C@@H](Oc2c3cc4cc2Oc2ccc(cc2Cl)[C@@H](O)C2NC(=O)[C@H](NC(=O)[C@@H]4NC(=O)[C@H]4NC(=O)[C@@H](Cc5ccc(cc5)O3)NC(=O)[C@H](N(C)Cc3ccc(-c5ccccc5)cc3)c3ccc(O)c(c3)Oc3cc(O)c(Cl)c4c3)c3ccc(O)c(c3)-c3c(O[C@H]4O[C@H](CO)[C@@H](O)[C@H](O)[C@@H]4O)cc(O)cc3[C@@H](C(=O)NCCCN(C)C)NC2=O)C(NCc2ccc(-c3ccccc3)cc2)[C@@H](O)C1O` (stereo not given in full), the minimum inhibitory concentration (MIC) was found to be 0.25 µg/mL in assay [1]; 0.25 µg/mL in the assay with Enterococcus faecalis [18]; 4 µg/mL with Enterococcus faecalis [19]; 1 µg/mL (≈ 0.488 µM) in the assay on Staphylococcus aureus [2]; 2 µg/mL in [3]; 0.5 µg/mL in the assay with Enterococcus faecium [5]. In addition, the figures for the minimal inhibitory concentration (MIC) (in assay [6]; in the assay with Enterococcus faecium [20]; with Staphylococcus aureus [9]) were 1 µg/mL, 32 µg/mL and 1 µg/mL (≈ 0.488 µM), respectively.
Consider `CN(C)CCCNC(=O)C1O[C@@H](Oc2c3cc4cc2Oc2ccc(cc2Cl)[C@@H](O)C2NC(=O)[C@H](NC(=O)[C@@H]4NC(=O)[C@H]4NC(=O)[C@@H](Cc5ccc(cc5)O3)NC(=O)[C@H](N(C)Cc3ccc5ccccc5c3)c3ccc(O)c(c3)Oc3cc(O)c(Cl)c4c3)c3ccc(O)c(c3)-c3c(O[C@H]4O[C@H](CO)[C@@H](O)[C@H](O)[C@@H]4O)cc(O)cc3[C@@H](C(=O)NCCCN(C)C)NC2=O)C(NCc2ccc3ccccc3c2)[C@@H](O)C1O` (stereo not given in full), for which the minimal inhibitory concentration (MIC) in the assay with Enterococcus faecalis [21] is 64 µg/mL; in assay [1], less than 0.125 µg/mL; in the assay on Staphylococcus aureus [2] it was 1 µg/mL (≈ 0.5 µM); in assay [3], 1 µg/mL; with Enterococcus faecium [22] it was greater than 32 µg/mL; with Enterococcus faecium [5], 0.25 µg/mL. In addition, the MIC in assay [6] is 2 µg/mL; in the assay with Enterococcus faecalis [23] it was less than 0.25 µg/mL; in the assay with Staphylococcus aureus [9] it was 2 µg/mL (≈ 1 µM).
On to `CCCCOc1ccc(CNC2[C@H](Oc3c4cc5cc3Oc3ccc(cc3Cl)[C@@H](O)C3NC(=O)[C@H](NC(=O)[C@@H]5NC(=O)[C@H]5NC(=O)[C@@H](Cc6ccc(cc6)O4)NC(=O)[C@H](N(C)Cc4ccc(OCCCC)cc4)c4ccc(O)c(c4)Oc4cc(O)c(Cl)c5c4)c4ccc(O)c(c4)-c4c(O[C@H]5O[C@H](CO)[C@@H](O)[C@H](O)[C@@H]5O)cc(O)cc4[C@@H](C(=O)O)NC3=O)OC(C(=O)O)C(O)[C@@H]2O)cc1` (stereo not given in full), for which the minimal inhibitory concentration (MIC) in assay [1] was 2 µg/mL; against Enterococcus faecalis [24], 8 µg/mL (≈ 4.27 µM); with Staphylococcus aureus [12], 2 µg/mL (≈ 1.07 µM); with Enterococcus faecalis [25], 0.5 µg/mL; in assay [3], 32 µg/mL; with Enterococcus faecium [26], 2 µg/mL. The minimum inhibitory concentration (MIC) with Enterococcus faecium [27] was greater than 128 µg/mL; in assay [6], 8 µg/mL; in the assay on Staphylococcus aureus [9], 1 µg/mL (≈ 0.533 µM).
